This is an account of results in patent US6849649B2, “N-phenpropylcyclopentyl-substituted glutaramide derivatives as inhibitors of neutral endopeptidase” (Pfizer Inc., priority 2001, dated 2005).

pIC50: −log10 of the molar value. Structures can show the parent of a compound that is named as a salt. Where two headings read alike, the source gives them in different places.

One data set has as its target T1, NEP from canine kidney (Canis lupus familiaris, UniProt A0A8I3PBM8).
T1 construct: determined using NEP from canine kidney; from tissue; host or cells: canine kidney
T1 sequence (A0A8I3PBM8 1-749): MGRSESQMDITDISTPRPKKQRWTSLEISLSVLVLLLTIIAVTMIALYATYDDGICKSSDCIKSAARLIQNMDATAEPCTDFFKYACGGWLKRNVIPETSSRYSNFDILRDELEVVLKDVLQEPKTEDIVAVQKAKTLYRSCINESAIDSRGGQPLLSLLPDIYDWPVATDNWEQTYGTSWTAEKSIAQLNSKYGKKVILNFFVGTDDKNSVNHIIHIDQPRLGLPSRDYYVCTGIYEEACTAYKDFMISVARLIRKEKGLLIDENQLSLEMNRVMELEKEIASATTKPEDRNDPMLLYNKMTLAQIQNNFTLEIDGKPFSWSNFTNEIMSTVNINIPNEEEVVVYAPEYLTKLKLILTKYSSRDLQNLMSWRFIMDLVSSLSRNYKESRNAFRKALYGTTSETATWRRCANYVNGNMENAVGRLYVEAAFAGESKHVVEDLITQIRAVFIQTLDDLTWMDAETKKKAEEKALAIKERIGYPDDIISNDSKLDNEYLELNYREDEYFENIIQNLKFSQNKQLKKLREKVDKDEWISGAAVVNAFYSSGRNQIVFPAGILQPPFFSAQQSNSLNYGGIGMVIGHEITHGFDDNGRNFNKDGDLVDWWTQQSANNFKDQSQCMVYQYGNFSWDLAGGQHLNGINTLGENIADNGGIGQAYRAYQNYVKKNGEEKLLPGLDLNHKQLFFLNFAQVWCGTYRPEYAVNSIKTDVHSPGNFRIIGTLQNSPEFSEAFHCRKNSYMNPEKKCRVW
The data set is described as follows: IC50 against NEP (canine kidney). The format is biochemical. Here is the method:
The IC50 values presented below were determined using NEP from canine kidney.

[1] abbreviates: NEP from canine kidney, read-out: IC50 against NEP.

The melting point is the temperature of the solid-liquid transition. In turn, `COCCC(CC1(C(=O)NCCCc2ccc(OC)cc2)CCCC1)C(=O)O` (centres unmarked) (as salt: sodium) [Example 1, 4-Methoxy-2-{[1-({[3-(4-methoxyphenyl)propyl]amino}carbonyl)cyclopentyl]-methyl}butanoic acid] came in with a melting point of 214 to 216 °C.

As usually defined, the pIC50 is −log10 of the IC50, conventionally taken in molar units. Turning to `COCCC(CC1(C(=O)NC(C)COc2ccccc2Cl)CCCC1)C(=O)O` (centres unmarked) [Example 3], the pIC50 on NEP from canine kidney (setting [1]) was 7.66.

As for `COCCC(CC1(C(=O)NCCCc2ccc(F)cc2)CCCC1)C(=O)O` (centres unmarked) [Example 4, 2-{[1-({[3-(4-fluorophenyl)propyl]amino}carbonyl)cyclopentyl]methyl}-4-methoxybutanoic acid], the pIC50 against NEP from canine kidney was 8.40.

Compound `O=C(O)CCC1(C(=O)NCCCc2ccc3c(c2)CCO3)CCCC1` [Example 21] gave a melting point of 94.5 to 97 °C. Moreover, the pIC50 on NEP from canine kidney (setting [1]) was 8.52.

As for `O=C(O)CCC1(C(=O)NCCCc2cccc3ccccc23)CCCC1` [Example 33], the negative logarithm of the IC50 (pIC50) at NEP from canine kidney (setting [1]) is 7.33.

For the compound `COCC[C@H](CC1(C(=O)NCCCc2ccc3c(c2)OCCO3)CCCC1)C(=O)O` [Example 43], on NEP from canine kidney (setting [1]), the pIC50 was 7.54.

For the compound `CC(CCNC(=O)C1(CCC(=O)O)CCCC1)c1ccc2c(c1)CCO2` (centres unmarked) [Example 51], the negative logarithm of the IC50 (pIC50) at NEP from canine kidney (setting [1]) is 8.05.
